Four molecules from ChEMBL document CHEMBL1201862, “PubChem BioAssay data set” (2004) can be followed below.

SMILES strings stand for the structures.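 96-well plates; 48 h exposure; 5 concentrations. Endpoints by linear interpolation between flanking doses. Not reached: highest tested concentration assigned. GI50: concentration for 50% inhibition of growth.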 Activity calls are given as the source filed them. No stated cut-off is given here; in the data, active = GI50 up to about 1.1 µM and inactive = higher.

Some test systems named below: TK-10; SK-MEL-2; OVCAR-3; LOX IMVI; CAKI-1; SK-OV-3; MOLT-4; UO-31; HCT-15; HT-29; UACC-62; NCI-H23; SF-539; SR; CCRF-CEM; SF-295; NCI-H522; NCI-H460; SK-MEL-28; SNB-19.
Common to all, as to assay: NCI tumour cell line growth inhibition, 48 h

Regarding `CCCCNC(=S)Nc1nc(C(=O)NNC(=S)NCc2ccccc2)cs1`, the GI50 in the test with TK-10 is 49.8 µM (inactive); in the test with SK-MEL-2, 46.9 µM (inactive); with OVCAR-3 it was 52.4 µM (inactive); with LOX IMVI, 18.7 µM (inactive); in the test with CAKI-1, 29.6 µM (inactive); in the test on SK-OV-3, 88.5 µM (inactive). In addition, the GI50 was 19.1 µM (inactive) in the test with MOLT-4; 23.9 µM (inactive) in the test on UO-31; 10.2 µM with HCT-15; 37.2 µM (inactive) in the test on HT-29; 19 µM (inactive) in the test on UACC-62; 75 µM (inactive) in the test with NCI-H23. Also, the GI50 with SF-539 is 31.9 µM (inactive); with SR, 8.24 µM (inactive); in the test on CCRF-CEM, > 10 µM (inactive); with SF-295 it was 37.5 µM (inactive); in the test on NCI-H522, 48.5 µM (inactive).

With `C(=N\c1nc2cc3sc(/N=C/c4cccs4)nc3cc2s1)/c1cccs1`, the GI50 in the test with NCI-H460 is 5.36 µM (inactive); with TK-10, 26.2 µM (inactive); with SK-MEL-2, > 100 µM (inactive); in the test with OVCAR-3 it was > 100 µM (inactive); in the test on SK-MEL-28, > 100 µM (inactive); in the test with LOX IMVI, 66.5 µM (inactive). For the same molecule, the GI50 is > 100 µM (inactive) with CAKI-1; > 100 µM (inactive) in the test on SK-OV-3; 28.3 µM (inactive) with MOLT-4; > 100 µM (inactive) in the test on UO-31; 73.5 µM in the test with HCT-15; 44.8 µM (inactive) with HT-29. Also, the GI50 in the test on NCI-H23 was 69.2 µM (inactive); with SF-539, > 100 µM (inactive); in the test on SR, 26.1 µM (inactive); with SNB-19, > 100 µM (inactive); in the test on CCRF-CEM it was 11.5 µM (inactive); in the test with SF-295, > 100 µM (inactive). Also, the GI50 with NCI-H522 is 45.2 µM (inactive).

In the case of `Cc1c(N2C(=O)C(Cl)C2/C=C/c2ccccc2)c(=O)n(-c2ccccc2)n1C` (configuration not stated), the GI50 in the test with NCI-H460 was 26.7 µM (inactive); in the test with TK-10 it was 14.3 µM (inactive); in the test on SK-MEL-2 it was 17.3 µM (inactive); in the test on OVCAR-3, 20.8 µM (inactive); in the test with LOX IMVI, 17.3 µM (inactive); with CAKI-1, 53 µM (inactive). For the same molecule, the GI50 is 32 µM (inactive) in the test on SK-OV-3; 13.4 µM (inactive) with MOLT-4; 28.1 µM (inactive) in the test on UO-31; 24.4 µM (inactive) in the test on HT-29; 14.9 µM (inactive) in the test with UACC-62; 7.59 µM (inactive) with NCI-H23. For the same molecule, the GI50 with SF-539 was 22.4 µM (inactive); in the test with SR it was 17.5 µM (inactive); in the test on CCRF-CEM, 16.1 µM (inactive); with SF-295, 22.1 µM (inactive); in the test with NCI-H522, 14.4 µM (inactive).

For the molecule `COc1cc(C=O)c(-c2cc3c(cc2C=O)OCO3)c(OC)c1OC`, the GI50 in the test with NCI-H460 was 103 µM (inactive); in the test with TK-10, 210 µM (inactive); in the test with SK-MEL-2, 65.6 µM (inactive); in the test on OVCAR-3 it was 56.6 µM (inactive); with SK-MEL-28, 144 µM (inactive); with LOX IMVI, 85.7 µM (inactive). Further, the GI50 in the test with CAKI-1 is 76.9 µM (inactive); in the test with SK-OV-3 it was 98.6 µM (inactive); in the test on MOLT-4, 96.2 µM (inactive); with HCT-15, 73.3 µM; in the test with HT-29, 79.6 µM (inactive); in the test with UACC-62, 90.6 µM (inactive). Besides, the GI50 in the test on NCI-H23 is 63.1 µM (inactive); with SF-539 it was 81.8 µM (inactive); with SR, 93.1 µM (inactive); with SNB-19 it was 202 µM (inactive); in the test on CCRF-CEM it was 88.1 µM (inactive); in the test with SF-295, 70 µM (inactive). Moreover, the GI50 in the test with NCI-H522 is 41.8 µM (inactive).
